Literature values in patent US12133913B2, “Methods of treating overactive bladder using trospium” (TARIS BIOMEDICAL LLC, priority 2018, dated 2024).
Structures can show the parent of a compound that is named as a salt. Where two headings read alike, the source gives them in different places.

Columns and labels:
[1] = in vivo
[2] = tested on: oral naïve overactive bladder patients

O=C(OC1CC2CCC(C1)[N+]21CCCC1)C(O)(c1ccccc1)c1ccccc1.[Cl-] (stereo not drawn) [oral trospium, 3-(2-hydroxy-2,2-diphenylacetoxy)spiro[bicyclo[3.2.1]octane-8,1′-pyrrolidin]-1′-ium chloride]
Predicted urine levels achieved with oral trospium [1]: 0.5 to 1 µg/mL

Cc1ccc(O)c([C@H](CCN(C(C)C)C(C)C)c2ccccc2)c1 [Detrol® LA, tolterodine tartrate]
Reduction in average daily incontinence episodes from baseline ([2]; in vivo, po): 0.8

O=C(O[C@H]1CN2CCC1CC2)N1CCc2ccccc2[C@@H]1c1ccccc1 [VESIcare®, solifenacin succinate]
Reduction in average daily incontinence episodes from baseline ([2]; oral treatment, oral naïve patients): 1.4
